From patent US5221625A, “Cyclcic FR-900520 microbial biotransformation agent” (Merck & Co., Inc., priority 1992, dated 1993)

What was measured:
[1] = system: FK-506 immunosuppressive activity; test: antagonist activity versus the FK-506 immunosuppressive activity by the T-cell proliferation assay; format: cell-based; conditions: qualitative
[2] = system: mouse T lymphocytes (splenic T-cells); test: T-cell proliferation assay (ionomycin plus PMA induced, tritiated thymidine uptake); format: cell-based, mouse (C57Bl/6)
Description: The principle of this assay is to measure the proliferation of mouse T lumphocytes stimulated with the combination of ionomycin plus PMA.
Cells were pelleted by centrifugation at 1500 rpm for 8 minutes. Contaminating red cells were removed by treating the pellet with ammonium chloride lysing buffer (GIBCO) for 2 minutes at 4° C. Cold medium was added and cells were again centrifuged at 1500 rpm for 8 minutes. T lumphocytes were then isolated by separation of the cell suspension on nylon wool columns as follows: Nylon wool columns were prepared by packing approximately 4 grams of washed and dried nylon wool into 20 ml plastic syringes. The columns were sterilized by autoclaving at 250° F. for 30 minutes. Nylon wool columns were wetted with warm (37° C.) culture medium and rinsed with the same medium. Washed spleen cells resuspended in warm medium were slowly applied to the nylon wool. The columns were then incubated in an upright position at 37° C. for 1 hours. […]
The cell suspension was immediately distributed into 96 well flat-bottom microculture plates (Costar) at 200 μl/well. […] Radioactivity of filter discs corresponding to individual wells was measured by standard liquid scintillation counting method (Betacounter). Mean counts per minute of replicate wells were calculated and the results expressed as percent inhibition of tritiated thymidine uptake (proliferation) as follows: [formula]

[3] = reputed; vs cyclosporin; cited from earlier work

Row | SMILES | antagonist activity versus FK-506 immunosuppressive activity [1] | reversal of inhibition of T-cell proliferation by IL2 ([2]; 50 units/ml recombinant IL2 added at initiation of culture) | inhibition of T-cell activation ([2]; ionomycin + PMA, qualitative) | effectiveness relative to cyclosporin [3] [times]
1 | CC[C@@H]1C=C2COC1(O)C[C@H](O)[C@@H](C)[C@@H](/C(C)=C/[C@@H]1CC[C@@H](O)[C@H](OC)C1)OC(=O)[C@@H]1CCCCN1C(=O)C(=O)[C@]1(O)O[C@H]([C@@H](OC)C[C@@H](C)C2)[C@@H](OC)C[C@H]1C [Compound I] | antagonist pharmacological activity | reversed | positive inhibition of T-cell activation | –
2 | C=CC[C@@H]1/C=C(\C)C[C@H](C)C[C@H](OC)[C@H]2O[C@@](O)(C(=O)C(=O)N3CCCC[C@H]3C(=O)O[C@H](/C(C)=C/[C@@H]3CC[C@@H](O)[C@H](OC)C3)[C@H](C)[C@@H](O)CC1=O)[C@H](C)C[C@@H]2OC [FR900506] | – | – | – | 100
